Experimental data as given in PubChem BioAssay AID330 (DTP/NCI, 2004).
Where “and” joins values, the source holds several entries; their conditions need not be identical. Equal entries are not always repeated. Inconclusive results and toxic doses are left out. Square brackets hold non-standard residues; d marks the D form. Peptide text beside a SMILES is read from it. * marks the point of attachment. ξ: configuration not given here. ξAsp(βξ-Me) = CC(C(=O)O)C(N)C(=O)O; X11 = CC(N*)C1NC(=O)C2CCCCN2C1=O; ξAbu(3ξ-NH2) = CC(N)C(N)C(=O)O; X10 = CCC(C)CCC/C=C/CC(=O)*

Tested on: P388 leukemia ip, CD2F1 mice, survival T/C
Assay: NCI In Vivo Anticancer Drug Screen. Data for tumor model P388 Leukemia (intraperitoneal) in CD2F1 (CDF1) mice
Conditions: endpoint: median survival time, higher = longer survival
Summary of the method: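 Mice carrying the transplanted tumor received test compound or vehicle. Survival was recorded in each group, and the value is the treated-group measurement divided by that of the vehicle-treated control group.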

[1] = dose: 12.5 mg/kg/injection, schedule: Q01DX009 (ip), vehicle: saline
[2] = dose: 50.0 mg/kg/injection, schedule: Q01DX009 (ip), vehicle: saline
[3] = dose: 50.0 mg/kg/injection, schedule: Q01DX009 (ip), vehicle: saline with Tween-80
[4] = dose: 100.0 mg/kg/injection, schedule: Q01DX009 (ip), vehicle: saline with Tween-80
[5] = dose: 200.0 mg/kg/injection, schedule: Q01DX009 (ip), vehicle: saline with Tween-80
[6] = dose: 50.0 mg/kg/injection, schedule: Q01DX005 (ip), vehicle: saline
[7] = dose: 100.0 mg/kg/injection, schedule: Q01DX005 (ip), vehicle: saline
[8] = dose: 50.0 mg/kg/injection, schedule: Q01DX005 (ip), vehicle: saline with Tween-80
[9] = dose: 100.0 mg/kg/injection, schedule: Q01DX005 (ip), vehicle: saline with Tween-80
[10] = dose: 100.0 mg/kg/injection, schedule: Q01DX009 (ip), vehicle: saline
[11] = dose: 200.0 mg/kg/injection, schedule: Q01DX009 (ip), vehicle: saline
[12] = dose: 6.25 mg/kg/injection, schedule: Q01DX009 (ip), vehicle: saline with Tween-80
[13] = dose: 12.5 mg/kg/injection, schedule: Q01DX009 (ip), vehicle: saline with Tween-80
[14] = dose: 25.0 mg/kg/injection, schedule: Q01DX009 (ip), vehicle: saline with Tween-80
[15] = dose: 50.0 mg/kg/injection, schedule: Q01DX005 (ip), vehicle: Klucel (hydroxypropylcellulose) (HPC)
[16] = dose: 100.0 mg/kg/injection, schedule: Q01DX005 (ip), vehicle: Klucel (hydroxypropylcellulose) (HPC)
[17] = dose: 200.0 mg/kg/injection, schedule: Q01DX005 (ip), vehicle: Klucel (hydroxypropylcellulose) (HPC)
[18] = dose: 200.0 mg/kg/injection, schedule: Q01DX005 (ip), vehicle: saline with Tween-80

Structure (SMILES): CCN(CC)C(C)COC(=O)c1ccc(N)cc1 (stereo not drawn)
- T/C [1]: 86 % of control
- T/C (dose: 12.5 mg/kg/injection, schedule: Q04DX003 (ip), vehicle: saline): 95 % of control
- T/C (dose: 25.0 mg/kg/injection, schedule: Q04DX003 (ip), vehicle: saline): 91 % of control
- T/C [2]: 100 % of control
- T/C (dose: 50.0 mg/kg/injection, schedule: Q04DX003 (ip), vehicle: saline): 91 % of control

Structure (SMILES): O=C(/C=C/c1ccc(Cl)c(Cl)c1)/C=C/c1ccc(Cl)c(Cl)c1
- T/C [3]: 87 % of control
- T/C [4]: 100 % of control
- T/C [5]: 87 % of control

Structure (SMILES): CC(O)CCC1CCCCN1 (stereo not drawn)
- T/C [6]: 109 % of control
- T/C [7]: 100 % of control
- T/C (dose: 200.0 mg/kg/injection, schedule: Q01DX005 (ip), vehicle: saline): 101 % of control

Structure (SMILES): CCOC(=O)c1c(SCC)c(C=C(C(C)=O)C(C)=O)c2ccccn12
- T/C (dose: 100.0 mg/kg/injection, schedule: Q01DX001 (ip), vehicle: saline with Tween-80): 99 % of control
- T/C (dose: 200.0 mg/kg/injection, schedule: Q01DX001 (ip), vehicle: saline with Tween-80): 95 % of control
- T/C (dose: 400.0 mg/kg/injection, schedule: Q01DX001 (ip), vehicle: saline with Tween-80): 89 % of control

Structure (SMILES): CCCC[P+](CCCC)(CCCC)CCN1C(=O)c2ccccc2C1=O
- T/C (dose: 0.78 mg/kg/injection, schedule: Q01DX009 (ip), vehicle: water): 92 % of control
- T/C (dose: 1.56 mg/kg/injection, schedule: Q01DX009 (ip), vehicle: water): 93 % of control
- T/C (dose: 3.13 mg/kg/injection, schedule: Q01DX009 (ip), vehicle: water): 106 % of control
- T/C (dose: 6.25 mg/kg/injection, schedule: Q01DX009 (ip), vehicle: water): 99 % of control
- T/C (dose: 12.5 mg/kg/injection, schedule: Q01DX009 (ip), vehicle: water): 100 % of control
- T/C (dose: 25.0 mg/kg/injection, schedule: Q01DX009 (ip), vehicle: water): 100 % of control and 101 % of control
- T/C (dose: 50.0 mg/kg/injection, schedule: Q01DX009 (ip), vehicle: water): 106 % of control
- T/C (dose: 100.0 mg/kg/injection, schedule: Q01DX009 (ip), vehicle: water): 116 % of control

Structure (SMILES): O=c1sc2ccccc2nc1NNc1ccccc1
- T/C [8]: 90 % of control
- T/C [9]: 90 % of control

Structure (SMILES): C/C(=N\Nc1ccccn1)c1ccccn1
- T/C (dose: 6.25 mg/kg/injection, schedule: Q01DX005 (ip), vehicle: saline with Tween-80): 104 % of control
- T/C (dose: 12.5 mg/kg/injection, schedule: Q01DX005 (ip), vehicle: saline with Tween-80): 100 % of control
- T/C (dose: 25.0 mg/kg/injection, schedule: Q01DX005 (ip), vehicle: saline with Tween-80): 101 % of control

Structure (SMILES): CCCCNP(=O)(N1CC1CC)N1CC1CC (stereo not drawn)
- T/C [2]: 122 % of control
- T/C [10]: 150 % of control
- T/C [11]: 104 % of control
- T/C (dose: 300.0 mg/kg/injection, schedule: Q04DX003 (ip), vehicle: saline): 195 % of control

Structure (SMILES): O=[N+]([O-])/C(=C/c1ccccc1)c1ccccc1
- T/C [12]: 109 % of control
- T/C (dose: 6.25 mg/kg/injection, schedule: Q04DX003 (ip), vehicle: saline with Tween-80): 109 % of control
- T/C [13]: 118 % of control
- T/C (dose: 12.5 mg/kg/injection, schedule: Q04DX003 (ip), vehicle: saline with Tween-80): 100 % of control
- T/C [14]: 118 % of control
- T/C (dose: 25.0 mg/kg/injection, schedule: Q04DX003 (ip), vehicle: saline with Tween-80): 113 % of control

Structure (SMILES): O=C1c2ccccc2N(C(=O)CN2CCOCC2)CN1c1ccccc1
- T/C [2]: 98 % of control
- T/C [10]: 100 % of control
- T/C [11]: 98 % of control

Structure (SMILES): CCC(C)CCC/C=C/CC(=O)NC(CC(=O)O)C(=O)NC(C(=O)NC(CC(=O)O)C(=O)NCC(=O)NC(CC(=O)O)C(=O)NCC(=O)NC(C(=O)NC(C(=O)N1CCCC1C(=O)NC(C)C1NC(=O)C2CCCCN2C1=O)C(C)C)C(C)N)C(C)C(=O)O (stereo not drawn) (X10-D[ξAsp(βξ-Me)]DGDG[ξAbu(3ξ-NH2)]VP-X11; configuration not given here)
- T/C (dose: 25.0 mg/kg/injection, schedule: Q01DX009 (ip), vehicle: saline + alcohol): 103 % of control
- T/C (dose: 50.0 mg/kg/injection, schedule: Q01DX009 (ip), vehicle: saline + alcohol): 103 % of control
- T/C (dose: 100.0 mg/kg/injection, schedule: Q01DX009 (ip), vehicle: saline + alcohol): 107 % of control and 88 % of control

Structure (SMILES): NC(=S)NNC(=O)C(Cc1ccccc1)NC(=O)OCc1ccccc1 (stereo not drawn)
- T/C [3]: 93 % of control

Structure (SMILES): OCC1OC(O)C(N=Cc2ccccc2O)C(O)C1O (stereo not drawn)
- T/C [15]: 104 % of control
- T/C [16]: 104 % of control
- T/C [17]: 106 % of control

Structure (SMILES): NCCCNc1cc(O)cc2cccnc12
- T/C [6]: 93 % of control
- T/C [7]: 95 % of control

Structure (SMILES): Cc1noc(NS(=O)(=O)c2ccc(NC(=O)NCCCl)cc2)c1C
- T/C (dose: 30.0 mg/kg/injection, schedule: Q01DX005 (ip), vehicle: Klucel (hydroxypropylcellulose) (HPC)): 102 % of control
- T/C (dose: 60.0 mg/kg/injection, schedule: Q01DX005 (ip), vehicle: Klucel (hydroxypropylcellulose) (HPC)): 98 % of control
- T/C (dose: 120.0 mg/kg/injection, schedule: Q01DX005 (ip), vehicle: Klucel (hydroxypropylcellulose) (HPC)): 95 % of control
- T/C (dose: 240.0 mg/kg/injection, schedule: Q01DX005 (ip), vehicle: Klucel (hydroxypropylcellulose) (HPC)): 97 % of control

Structure (SMILES): CN(C)c1ccc(C(=N)c2ccc(N(C)C)cc2)cc1 (tested in a mixture with another compound)
- T/C [14]: 100 % of control
- T/C [3]: 95 % of control
- T/C [4]: 100 % of control

Structure (SMILES): Cc1c2cccc(Sc3ccccc3)c2c2c3c(cccc13)[S+](c1ccccc1)C2 (stereo not drawn)
- T/C [12]: 113 % of control
- T/C [13]: 115 % of control

Structure (SMILES): Cc1cnc(C#N)c(C#N)n1
- T/C (dose: 6.25 mg/kg/injection, schedule: Q01DX005 (ip), vehicle: Klucel (hydroxypropylcellulose) (HPC)): 103 % of control
- T/C (dose: 12.5 mg/kg/injection, schedule: Q01DX005 (ip), vehicle: Klucel (hydroxypropylcellulose) (HPC)): 106 % of control
- T/C (dose: 25.0 mg/kg/injection, schedule: Q01DX005 (ip), vehicle: Klucel (hydroxypropylcellulose) (HPC)): 100 % of control
- T/C [15]: 116 % of control

Structure (SMILES): Nc1nc2c(s1)CCC2
- T/C [3]: 118 % of control
- T/C [4]: 104 % of control
- T/C [5]: 93 % of control

Structure (SMILES): [Br][Pt].[NH-]CC[N-]CC[NH-]
- T/C (dose: 1.56 mg/kg/injection, schedule: Q01DX009 (ip), vehicle: saline): 102 % of control
- T/C (dose: 3.13 mg/kg/injection, schedule: Q01DX009 (ip), vehicle: saline): 100 % of control
- T/C (dose: 6.25 mg/kg/injection, schedule: Q01DX009 (ip), vehicle: saline): 100 % of control
- T/C [1]: 97 % of control
- T/C (dose: 25.0 mg/kg/injection, schedule: Q01DX009 (ip), vehicle: saline): 97 % of control

Structure (SMILES): O=C(NC(C(=O)O)C1CC(Cl)=NO1)OCC1c2ccccc2-c2ccccc21 (stereo not drawn)
- T/C (dose: 3.1 mg/kg/injection, schedule: Q04DX003 (ip), vehicle: other): 104 % of control
- T/C (dose: 6.2 mg/kg/injection, schedule: Q04DX003 (ip), vehicle: other): 116 % of control
- T/C (dose: 12.5 mg/kg/injection, schedule: Q04DX003 (ip), vehicle: other): 120 % of control
- T/C (dose: 25.0 mg/kg/injection, schedule: Q04DX003 (ip), vehicle: other): 120 % of control and 123 % of control
- T/C (dose: 100.0 mg/kg/injection, schedule: Q04DX003 (ip), vehicle: other): 157 % of control
- T/C (dose: 200.0 mg/kg/injection, schedule: Q04DX003 (ip), vehicle: other): 150 % of control

Structure (SMILES): S=C(NCCN1CCN2Cc3[nH]c4ccccc4c3CC2C1)Nc1ccccc1 (stereo not drawn)
- T/C [8]: 94 % of control
- T/C [9]: 91 % of control
- T/C [18]: 102 % of control

Structure (SMILES): O=C1NN(C(=O)c2ccccc2)C(c2ccccc2[N+](=O)[O-])c2c1c1ccccc1n2C(=O)c1ccccc1 (stereo not drawn)
- T/C [15]: 97 % of control
- T/C [16]: 95 % of control
- T/C [17]: 88 % of control

Structure (SMILES): CC(N[Si](c1ccccc1)(c1ccccc1)C(C)(C)C)c1ccccc1 (stereo not drawn)
- T/C [8]: 98 % of control
- T/C [9]: 97 % of control
- T/C [18]: 97 % of control

Structure (SMILES): CCCCCCCCCCCCCCOC(=O)c1ccc(O)cc1
- T/C (dose: 50.0 mg/kg/injection, schedule: Q01DX009 (ip), vehicle: Klucel (hydroxypropylcellulose) (HPC)): 94 % of control
- T/C (dose: 100.0 mg/kg/injection, schedule: Q01DX009 (ip), vehicle: Klucel (hydroxypropylcellulose) (HPC)): 101 % of control
- T/C (dose: 200.0 mg/kg/injection, schedule: Q01DX009 (ip), vehicle: Klucel (hydroxypropylcellulose) (HPC)): 89 % of control
